One assay deals with T1, Wis1 kinase (Schizosaccharomyces pombe, UniProt P33886).
T1 construct: The genes wis1 and spc1 were cloned into the pRep1 vector containing nmt1 promoter; made in house; host or cells: Schizosaccharomyces pombe KGY246 (pRep1 vector, nmt1 promoter)
T1 sequence (P33886 1-605): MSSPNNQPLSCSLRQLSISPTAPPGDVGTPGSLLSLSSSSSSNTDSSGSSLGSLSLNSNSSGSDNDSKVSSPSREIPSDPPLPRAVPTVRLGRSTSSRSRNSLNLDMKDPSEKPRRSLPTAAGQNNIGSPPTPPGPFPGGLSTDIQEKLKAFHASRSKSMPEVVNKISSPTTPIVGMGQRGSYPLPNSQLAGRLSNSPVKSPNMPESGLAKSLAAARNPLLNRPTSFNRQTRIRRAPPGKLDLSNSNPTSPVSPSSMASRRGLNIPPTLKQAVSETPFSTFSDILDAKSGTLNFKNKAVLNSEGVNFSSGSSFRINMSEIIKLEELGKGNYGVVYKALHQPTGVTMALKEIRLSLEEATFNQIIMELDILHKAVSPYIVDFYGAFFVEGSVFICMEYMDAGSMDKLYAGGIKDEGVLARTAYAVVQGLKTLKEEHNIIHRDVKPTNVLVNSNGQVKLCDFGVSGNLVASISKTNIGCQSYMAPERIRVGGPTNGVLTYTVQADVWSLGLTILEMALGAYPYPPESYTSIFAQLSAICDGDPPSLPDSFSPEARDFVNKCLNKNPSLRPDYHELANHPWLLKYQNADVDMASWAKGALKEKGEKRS
Description: Wis1 kinase activity and autophosphorylation ([γ-32P]ATP, SDS-PAGE, FIG. 2). The following applies: purified GST-Wis1, kinase reaction 30° C. 30 minutes, autophosphorylation also measured. The format is biochemical. The protocol: The genes wis1 and spc1 were cloned into the pRep1 vector containing nmt1 promoter of which expression was inhibited by thiamin in the medium and able to tag GST. The KGY246 cells, wild type Schizosaccharomyces pombe cells were transformed with this plasmid. The expression of Wis1 and Spc1 kinase tagged with GST was induced by the cultivation of the transformed cells in MM^AU medium containing 0.4 mM thiamin followed by cultivation to exponential phase(5×10^6 cells) for about 20 hours in 100 mL of MM^AU medium in which thiamin was withdrawn. After osmotic shock(0.6M KCl) and oxidative stress were given to the cells expressing Wis1 and Spc1 tagged with GST for 25 minutes, cells were recovered at 4° C., washed with ice-cold PBS/NaF(50 mM)/NaN3(1 mM) buffer and HB buffer(25 mM HEPES, pH 7.5, 60 mM β-glycerophosphate, 15 mM EGTA, 0.1 mM Na vanadate, 0.1% triton and hydrolyzed using glass bead and bead beater purchased from Sigma. The supernatant of hydrolyzed cells was incubated with 100 mM NaCl for salting-out to remove unnecessary proteins. After the supernatant was incubated with 0.045 g/ml GST beads for 1.5 hours, proteins not bound to GST beads were removed. Purified Wis1 and Spc1 kinases were separated on 7% SDS-PAGE and the degree of purification was confirmed by western blotting using GST antibody.
Before Wis1 and Spc1 kinases purified in example 4 were analyzed, they were pre-incubated in analyzing buffer of kinase (50 mM Tris-Cl pH7.4, 20 mM MgCl2, 5 mM EGTA, 2 mM Na vanadate, 1 mM DTT). The kinase reaction was performed at 30° C. for 30 minutes in the presence of 1 mg/ml myelin basic protein(MBP), 1 mM ATP and 20 uCi of [γ-^32p]ATP and then terminated by adding SDS sample buffer and heating at 90° C. for 5 minutes. The reaction mixtures were separated on SDS-polyacrylamide gel electrophoresis. After fixation with 10% acetic acid: 10% methanol and drying, the gel was exposed on X-ray film. When Wis1 is activated by stimulus, it also activates autophosphorylation. Therefore, the degree of Wis1 autophosphorylation was also measured.

Assay [1] relates to knock-out mutant of wis1 (JM544). Description: Growth (cell number) of wis1 knock-out mutant. The format is cell-based, Schizosaccharomyces pombe. Conditions: for inhibition of the activity of Wis1 kinase, concluded from effects on knock-out mutants: conclusion from growth of knock-out mutants; for cell number: Table 5, wis1 knock-out, miconazole 3 ug/mL. Here is the method: To investigate the effect of protoberberine derivatives on the growth of cells, the cells of each strain were cultured in rich medium YE^AU to exponential phase(5×10^7 cells/mL). […]

For assay [2], the system named is knock-out mutant of spc1 (KS1366). Description: Growth (cell number) of spc1 knock-out mutant. It counts as cell-based, Schizosaccharomyces pombe. The following applies: Table 6, spc1 knock-out, miconazole 3 ug/mL. The protocol:
To investigate the effect of protoberberine derivatives on the growth of cells, the cells of each strain were cultured in rich medium YE^AU to exponential phase(5×10^7 cells/mL). […] Then cell number was measured every 3 hours.

Assay [3] deals with knock-out mutant of spm1 in Mhk1-Spm1 pathway (TZs69). Description: Growth (cell number) of spm1 knock-out mutant. The format is cell-based, Schizosaccharomyces pombe. Conditions: Table 4, spm1 knock-out, miconazole 3 ug/mL. Here is the method: (§1) To investigate the effect of protoberberine derivatives on the growth of cells, the cells of each strain were cultured in rich medium YE^AU to exponential phase(5×10^7 cells/mL). These cells were transferred to YE^AU medium and cultured for 12 hours. Then cell number was measured every 3 hours.

In assay [4] the test system is knock-out mutant of byr2 in Ras-Byr2 pathway (SPSU). Description: Growth (cell number) of byr2 knock-out mutant. The format is cell-based, Schizosaccharomyces pombe. Conditions: Table 3, byr2 knock-out, miconazole 3 ug/mL. Here is the method:
as §1

17 compounds from patent publication US20040029910A1, “Protoberberine derivatives which inhibit activity of the mitogen-activated protein kinase” (priority 2000, published 2004) can be followed below.

For the compound `COc1ccc2c(Cc3ccc(C)cc3C)c3[n+](cc2c1OC)CCc1cc2c(cc1-3)OCO2.[Cl-]` [13-(2,4-dimethylbenzyl)berberine chloride], the “inhibition of Wis1 kinase activity (in words)” value (from here on “inhibition … (in words)”) against Wis1 kinase is recorded as “directly inhibited”. For the same compound, the “inhibition of the activity of Wis1 kinase, concluded from effects on knock-out mutants” value (“inhibition … on knock-out mutants” for short) in assay [1] is “inhibited”.
Take `COC(=O)c1ccc(Cc2c3[n+](cc4c(OC)c(OC)ccc24)CCc2cc4c(cc2-3)OCO4)cc1` [13-(4-methoxycarbonylbenzyl)berberine chloride]: the “inhibition … (in words)” value against Wis1 kinase was “directly inhibited”. Besides, the “inhibition … on knock-out mutants” value in assay [1] is reported as “inhibited”.
`COc1ccc2c(Cc3ccccc3)c3[n+](cc2c1OC)CCc1cc2c(cc1-3)OCO2.[I-]` [13-benzylberberine iodide]: at Wis1 kinase, the “inhibition … (in words)” value is “directly inhibited”. For the same compound, the “inhibition … on knock-out mutants” value in assay [1] is on record as “inhibited”.
In the case of `COc1ccc2c(Cc3ccc(F)cc3C(F)(F)F)c3[n+](cc2c1OC)CCc1cc2c(cc1-3)OCO2.[Cl-]` [13-(4-fluoro-2-trifluoromethylbenzyl)berberine chloride], at Wis1 kinase, the “inhibition … (in words)” value is “directly inhibited”. Besides, in assay [1], the “inhibition … on knock-out mutants” value was “inhibited”.
Turning to `COc1ccc2c(Cc3ccc(Cl)cc3)c3[n+](cc2c1OC)CCc1cc2c(cc1-3)OCO2.[I-]` [13-(4-chlorobenzyl)berberine iodide], the “inhibition … (in words)” value at Wis1 kinase is on record as “directly inhibited”. Besides, the “inhibition … on knock-out mutants” value in assay [1] is “inhibited”.
Consider `COc1ccc(Cc2c3[n+](cc4c(OC)c(OC)ccc24)CCc2cc4c(cc2-3)OCO4)cc1` [13-(4-methoxybenzyl)berberine chloride], for which, at Wis1 kinase, the “inhibition … (in words)” value is reported as “directly inhibited”. The “inhibition … on knock-out mutants” value in assay [1] is “inhibited”.
On to `COc1ccc2c(Cc3c(F)cccc3Cl)c3[n+](cc2c1OC)CCc1cc2c(cc1-3)OCO2` [13-(2-chloro-6-fluorobenzyl)berberine chloride], for which the “inhibition … (in words)” value against Wis1 kinase is “directly inhibited”. Further, the “inhibition … on knock-out mutants” value in assay [1] is given as “inhibited”.
As for `COc1ccc2c(Cc3ccc(C)cc3)c3[n+](cc2c1OC)CCc1cc2c(cc1-3)OCO2.[Cl-]` [13-(4-methylbenzyl)berberine chloride], on Wis1 kinase, the “inhibition … (in words)” value was “directly inhibited”. The “inhibition … on knock-out mutants” value in assay [1] is “inhibited”.
`COc1ccc2c(Cc3cccc(C(F)(F)F)c3)c3[n+](cc2c1OC)CCc1cc2c(cc1-3)OCO2.[Cl-]` [13-(3-trifluoromethylbenzyl)berberine chloride]: the “inhibition … (in words)” value against Wis1 kinase is reported as “directly inhibited”. Further, the “inhibition … on knock-out mutants” value in assay [1] is “inhibited”.
On to `Clc1ccc(COC(Cn2ccnc2)c2ccc(Cl)cc2Cl)c(Cl)c1` (stereo not shown) [miconazole, reference compound], for which the cell number in assay [2] (time 12) was 15; in assay [2] (time 15), 9; in assay [2] (time 18), 12; in assay [2] (time 21), 18; in assay [2] (time 24), 17; in assay [3] (time 12), 28. Further, the cell number in assay [3] (time 15) is recorded as 27; in assay [3] (time 18), 23; in assay [3] (time 21) it was 34; in assay [3] (time 24), 26; in assay [4] (time 12), 32; in assay [4] (time 15), 19. For the same compound, the cell number in assay [4] (time 18) is given as 31; in assay [4] (time 21), 30; in assay [4] (time 24), 27; in assay [1] (time 12), 35; in assay [1] (time 15), 37; in assay [1] (time 18), 25. In addition, the cell number in assay [1] (time 21) was determined as 19; in assay [1] (time 24) it was 12.
For `COc1ccc2c(Cc3cccc(Br)c3)c3[n+](cc2c1OC)CCc1cc2c(cc1-3)OCO2` [13-(3-bromobenzyl)berberine iodide], the “inhibition … (in words)” value at Wis1 kinase was “directly inhibited”. In addition, the “inhibition … on knock-out mutants” value in assay [1] is on record as “inhibited”.
As for `COc1ccc2c(Cc3c(F)c(F)c(F)c(F)c3F)c3[n+](cc2c1OC)CCc1cc2c(cc1-3)OCO2` [13-(2,3,4,5,6-pentafluorobenzyl)berberine chloride], the “inhibition … (in words)” value against Wis1 kinase is on record as “directly inhibited”. For the same compound, in assay [1], the “inhibition … on knock-out mutants” value is “inhibited”.
For the compound `COc1ccc2c(Cc3cccc(Cl)c3Cl)c3[n+](cc2c1OC)CCc1cc2c(cc1-3)OCO2.[Cl-]` [13-(2,3-dichlorobenzyl)berberine chloride], the “inhibition … (in words)” value at Wis1 kinase was “directly inhibited”. Further, the “inhibition … on knock-out mutants” value in assay [1] is recorded as “inhibited”.
With `COc1ccc2c(Cc3ccc(C(C)C)cc3)c3[n+](cc2c1OC)CCc1cc2c(cc1-3)OCO2.[Cl-]` [13-(4-i-propylbenzyl)berberine chloride], the “inhibition … (in words)” value at Wis1 kinase was “directly inhibited”. Also, the “inhibition … on knock-out mutants” value in assay [1] is reported as “inhibited”.
With `COc1ccc2c(Cc3ccc(C)c([N+](=O)[O-])c3)c3[n+](cc2c1OC)CCc1cc2c(cc1-3)OCO2.[Cl-]` [13-(4-methyl-3-nitrobenzyl)berberine chloride], the “inhibition … (in words)” value against Wis1 kinase is listed as “directly inhibited”. Moreover, the “inhibition … on knock-out mutants” value in assay [1] is “inhibited”.
With `COc1ccc2c(Cc3ccc(OC(F)(F)F)cc3)c3[n+](cc2c1OC)CCc1cc2c(cc1-3)OCO2.[Cl-]` [13-(4-trifluoromethoxybenzyl)berberine chloride], the “inhibition … (in words)” value against Wis1 kinase was “directly inhibited”. Besides, in assay [1], the “inhibition … on knock-out mutants” value is on record as “inhibited”.
On to `COc1ccc2c(Cc3c(F)c(F)c(C(F)(F)F)c(F)c3F)c3[n+](cc2c1OC)CCc1cc2c(cc1-3)OCO2.[Cl-]` [13-(2,3,5,6-tetrafluoro-4-trifluoromethylbenzyl)berberine chloride], for which the “inhibition … (in words)” value against Wis1 kinase was “directly inhibited”. Further, in assay [1], the “inhibition … on knock-out mutants” value is reported as “inhibited”.
